Assay results taken from patent US20090030037A1, “Sustained Release Formulation and Dosing Schedules of Leukotriene Synthesis Inhibitor for Human Therapy” (deCODE Genetics ehf., priority 2005, published 2009).
Where two headings read alike, the source gives them in different places.

Legend:
[1] = Study DG-031-204: steady state DG-031 plasma concentrations; format: in vivo, human; settings: for concentration at 0 h / concentration at 0.5 h / concentration at 1 h / concentration at 2 h / concentration at 4 h / concentration at 6 h: human, plasma, oral, 500 mg, read-out: Steady state DG-031 exposure, Geometric Mean; for concentration at 0 h: 0 hr post dose; for concentration at 0.5 h: 0.5 hr post dose; for concentration at 1 h: 1 hr post dose; for concentration at 2 h: 2 hr post dose; for concentration at 4 h: 4 hr post dose; for concentration at 6 h: 6 hr post dose
Method: Blood samples were collected for determining DG-031 concentrations in a subset of patients (n=22). Samples were collected just prior to dosing and at 0.5, 1, 2, 4, and 6 hours following administration of DG-031 500 mg BID or TID.

[2] = Clinical studies in CAD patients: safety and tolerability; format: in vivo, human
Method: Previous clinical studies administered the dosages of DG-031 either in a single dose (QD) or twice a day (BID)
A total daily dose of 750 mg, dosed at 250 mg TID, provides a preferable PK/PD relationship (inhibition of LTB4) and efficacy in terms of lowering other biomarkers of MI risk (i.e. MPO and CRP). In addition, a total daily dose of 1000 mg, dosed at 500 mg BID, also provides a preferable PK and PD time course (inhibition of LTB4) and efficacy in terms of lowering other biomarkers of MI risk (i.e. MPO). Patient compliance is an important consideration when designing a dosing schedule and patients are more likely to comply with a twice a day dosing (BID) than three times a day doing (TID).

hsCRP = test: Study DG-031-204: hsCRP; format: in vivo, human; settings: after 4 weeks
Method: An additional single site, open label study was carried out to obtain biomarker and safety data on additional DG-031 doses (i.e., 1000 mg and 1500 mg). This study examined the safety, tolerability and dose-related effects of DG-031 on inflammatory biomarkers including: LTB4, hsCRP, and MPO. A total of 119 patients with a prior history of CAD and MI were randomized to receive either 1000 mg DG-031 (500 mg BID) or 1500 mg DG-031 (500 mg TID) daily for 4-6 weeks. Treatment with DG-031 in addition to the subject's standard care, medication, and treatment, was prescribed by the patient's cardiologist. A majority of the subjects received statin therapy before, during and after the study. Follow-up assessments were performed 2 weeks after the end of study drug administration.
The biomarkers were analyzed as described in Example 1. Statistical analysis of the data was carried out using a one-sample t-test on change from baseline with a two-sided nominal significance level of 0.050. Biomarker concentrations were log-transformed and a simple last observation carried forward (LOCF) scheme was used to impute missing observations.
Additionally, hsCRP was measured weekly and tended to decrease in the 1000 mg treatment group. […]

White blood cell count = test: Study DG-031-201: white blood cell count; format: in vivo, human; settings: difference visit 2 to 5; 500 and 750 mg/day vs placebo
Method: Patients who met the study eligibility criteria were enrolled and randomized into 3 different dose-level groups: (1) 64 patients on 250 mg/day therapy with DG-031 (250 mg q.d.), vs placebo; (2) 64 patients on 500 mg/day therapy with DG-031 (250 mg b.i.d.) vs placebo; and (3) 63 patients on 750 mg/day therapy with DG-031 (250 mg t.i.d.) vs placebo. […] All patients received 3 tablets per day. Treatment periods, 4 weeks in duration each, were separated by a 2-week washout period. The placebo tablets were identical in shape, color, form and taste to the active tablets except that they contained no active drug ingredients. Treatment with DG-031 or placebo was in addition to the subject's standard care, including all medications and treatment plan as prescribed by the subject's cardiologist prior to enrolment. A total of 191 subjects were enrolled, with 172 completing all 8 visits or 8 patients short of the target of 180 patients.
All data were analyzed according to a pre-established statistical analysis plan (SAP) and by intention-to-treat (ITT). Each arm of the study, as well as pooled sets (combining dose levels), was considered for the primary analysis. […] The difference between DG-031 and placebo treatment was the primary outcome, assessed separately for each of the biomarkers. […]

[3] = asthma patients, cited from earlier work

In the case of `O=C(O)[C@@H](c1ccc(OCc2ccc3ccccc3n2)cc1)C1CCCC1` [DG-031, (R)-(+)-alpha-cyclopentyl-4-(2-quinolinylmethoxy)-Benzeneacetic acid], the DG-031 concentrations observed ([1]; 500 mg BID or TID, subset n=22) is reported as “up to 20.3 μg/mL”, the Mean trough concentration ([1]; 500 mg BID, steady state) is reported as 4.3 µg/mL and the “Observed mean peak concentration” value ([1]; 500 mg BID, steady state) is reported as 8.8 µg/mL. For the same compound, the “Observed peak to trough fluctuation” value ([1]; 12 hour period, BID dosing regimen) was 2-3 fold, the concentration at 0 h ([1]; 500 mg BID) was 4300 ng/mL and the concentration at 0.5 h ([1]; 500 mg BID) was 4700 ng/mL. It also gave a concentration at 1 h ([1]; 500 mg BID) of 6100 ng/mL, a concentration at 2 h ([1]; 500 mg BID) of 8600 ng/mL and a concentration at 4 h ([1]; 500 mg BID) of 8800 ng/mL. For the same compound, the concentration at 6 h ([1]; 500 mg BID) was 7000 ng/mL, the concentration at 0 h ([1]; 500 mg TID) was 6900 ng/mL and the concentration at 0.5 h ([1]; 500 mg TID) was 6800 ng/mL. For the same compound, the concentration at 1 h ([1]; 500 mg TID) was 8500 ng/mL, the concentration at 2 h ([1]; 500 mg TID) was 10100 ng/mL and the concentration at 4 h ([1]; 500 mg TID) was 10000 ng/mL. The concentration at 6 h ([1]; 500 mg TID) was 7400 ng/mL, the Safety and tolerability ([2]; 250 mg QD, 375 mg QD, 250 mg BID, 375 mg BID, 250 mg TID) was “safe and well tolerated” and the Safety and tolerability ([2]; total daily doses 250, 500, 750 mg, 128 days) was “safe and well tolerated”. For the same compound, the “hsCRP reduction, mean change from baseline” value (hsCRP; 1000 mg treatment group) was 20%, the “hsCRP reduction, mean change from baseline” value (hsCRP; 1500 mg treatment group) was 3% and the “Carry-over effect, White blood cell count” value (White blood cell count) was −0.01. For the same compound, the Safety and tolerability ([3]; total daily dose 250-1000 mg, 14 days) was “safe and well tolerated” and the Safety and tolerability ([3]; total daily doses 100-1000 mg, 14-42 days) was “safe and well tolerated”.
